This note sets out measurements from ChEMBL document CHEMBL1144282, “Synthesis and SAR of 5,6-diarylpyridines as human CB1 inverse agonists” (Bioorg Med Chem Lett, 2005).

Each structure is given as a SMILES string.

A short description of data set [1]: in vivo. As to conditions: rat, iv, 1 mg/kg.
Data set [2] in a line: in vivo. To be noted: rat, po, 2 mg/kg.
Data set [3] in a line: in vivo. As to conditions: rat, iv, 1 mg/kg. The source holds these as a separate data set.
Description: Volume of distribution at steady state was determined in rat after intravenous administration of 1 mg/kg compound
A short description of data set [4]: in vivo. To be noted: rat, iv, 1 mg/kg. The source holds these as a separate data set.
Description: Half life period was determined in rat after intravenous administration of 1 mg/kg compound
The target of the next data set is Cannabinoid receptor 2 (Homo sapiens, UniProt P34972).
Chain of Cannabinoid receptor 2 (P34972 whole entry): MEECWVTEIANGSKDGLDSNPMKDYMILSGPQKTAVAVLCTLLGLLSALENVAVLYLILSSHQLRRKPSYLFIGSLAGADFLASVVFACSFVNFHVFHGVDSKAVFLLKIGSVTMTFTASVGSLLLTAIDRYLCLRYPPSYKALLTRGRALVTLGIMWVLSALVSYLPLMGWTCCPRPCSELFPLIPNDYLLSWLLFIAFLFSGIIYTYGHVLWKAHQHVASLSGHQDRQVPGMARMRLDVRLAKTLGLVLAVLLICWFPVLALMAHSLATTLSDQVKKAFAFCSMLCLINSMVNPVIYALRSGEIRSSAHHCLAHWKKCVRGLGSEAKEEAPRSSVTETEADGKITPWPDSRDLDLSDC

Description for Cannabinoid receptor 2: Inhibitory concentration tested against human Cannabinoid receptor 2 (hCB2)

On to `CCCNC(=O)c1cc(-c2ccc(Cl)cc2)c(-c2ccc(Cl)cc2Cl)nc1OCc1ccc(F)c(F)c1`, for which the clearance (as a rule, a measure of how efficiently the substance is removed, as volume per time) in “in vivo [1]” is 5.8 mL/min/kg. Moreover, the bioavailability – broadly, dose-corrected exposure relative to a reference, in per cent – in the data set “in vivo [2]” came out at 12%. Further, in the data set “in vivo [3]”, the Vd (commonly the apparent volume that relates the amount in the body to the concentration in plasma or blood) is 0.4 L/kg. In “in vivo [4]”, the half-life (as a rule, the time needed for the level to fall by half in the phase considered) is 2.5 h. Also, on Cannabinoid receptor 2, 815 nM corresponded to half-maximal inhibition (IC50).
